Laboratory results reported in patent publication US11253589B2, “Modulation of the immune response” (priority 2007, dated 2022).

How the values were obtained:
[1] = system: CD4+ CD62L+CD45RO- T cells; experiment: In vitro differentiation of human naive CD4+ T cells, suppression and real time PCR; type: cell-based
Method: To investigate the potential of AHR targeting for the induction of human Treg we activated purified naïve CD4^+ CD62L^+CD45RO^− T cells for healthy donors for 5 days with antibodies to CD3 and CD28 in the presence of TCDD 100 nM or TGFb1 2.5 ng/ml or both.
To study the functionality of the putative human Treg induced in the presence of TCDD we studied their suppressive activity of CD4^+ CD25^High and CD4^+CD25^Low T cells following 5 days of activation in the of TCDD or TGFb1 2.5 ng/ml or both.
To investigate the mechanism mediating the suppressive activity of the TCDD-induced Treg, we analyzed them by real time PCR for the expression of several genes that have been previously linked to the suppressive function of Treg. […] Accordingly, IL-10-specific blocking antibodies could interfere with the suppressive activity of Treg induced with TCDD, but not the of those induced with TGFb1 and TCDD (FIG. 42). Thus, TCDD-induced CD4^+CD25^High T cells are FoxP3^− regulatory cells whose suppressive activity is mediated, at least partially, via IL-10, resembling the phenotype of type 1 Treg (Roncarolo et al., Immunol Rev. 212, 28 (2006); Roncarolo and Gregori, Eur J Immunol. 38, 925 (2008)).

AHR = target: T1, AHR (Homo sapiens, UniProt P35869); conditions: cited from earlier work
T1 sequence (P35869 11-848): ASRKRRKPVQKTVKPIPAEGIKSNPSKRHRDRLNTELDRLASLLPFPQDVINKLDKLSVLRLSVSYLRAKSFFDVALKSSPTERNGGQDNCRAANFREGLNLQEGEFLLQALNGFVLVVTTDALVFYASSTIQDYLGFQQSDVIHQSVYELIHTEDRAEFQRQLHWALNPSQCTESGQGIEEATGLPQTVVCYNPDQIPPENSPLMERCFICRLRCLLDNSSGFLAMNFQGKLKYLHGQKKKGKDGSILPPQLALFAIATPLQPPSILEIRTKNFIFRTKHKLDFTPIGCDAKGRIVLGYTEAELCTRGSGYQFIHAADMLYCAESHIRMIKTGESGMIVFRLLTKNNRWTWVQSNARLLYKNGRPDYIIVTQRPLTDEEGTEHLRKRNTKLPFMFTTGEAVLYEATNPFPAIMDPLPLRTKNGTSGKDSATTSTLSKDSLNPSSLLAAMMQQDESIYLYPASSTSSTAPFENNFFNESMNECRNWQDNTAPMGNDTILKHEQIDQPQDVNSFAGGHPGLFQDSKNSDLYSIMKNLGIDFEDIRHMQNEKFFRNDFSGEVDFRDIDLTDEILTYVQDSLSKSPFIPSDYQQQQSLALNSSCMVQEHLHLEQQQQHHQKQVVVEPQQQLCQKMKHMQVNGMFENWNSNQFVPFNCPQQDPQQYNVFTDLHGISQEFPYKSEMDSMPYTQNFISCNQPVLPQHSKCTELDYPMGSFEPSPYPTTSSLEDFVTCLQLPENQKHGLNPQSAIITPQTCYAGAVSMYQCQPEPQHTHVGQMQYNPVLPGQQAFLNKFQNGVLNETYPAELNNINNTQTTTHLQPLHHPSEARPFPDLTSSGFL

myelin specific T cells = experiment: Recall response (proliferation, cytokine secretion) to MOG35-55 or anti-CD3 of cells from treated mice; type: in vivo, mouse
Method: Cells were cultured in serum-free X-VIVO 20™ media (BioWhittaker, Walkersville, Md., USA) for 72 hours. During the last 16 hours, cells were pulsed with 1 μCi of [^3H]thymidine (PerkinElmer, Waltham, Mass., USA) followed by harvesting on glass fiber filters and analysis of incorporated [^3H]thymidine in a beta-counter (1450 Microbeta, Trilux, PerkinElmer). Alternatively, culture supernatants were collected […] activation and the cytokine concentration was determined by ELISA using antibodies for IFN-γ, IL-17, IL-4, IL-10 from BD Biosciences and antibodies to TGF-β from R&D Systems. For suppression assays, MACS purified CD4^+CD25^− T cells from naïve C57BL/6 mice (1-5×10^4 cells/well) were stimulated with antibodies to CD3 and C57BL/6 irradiated spleen cells (0.3-1.5×10^4 cells/well) for 3 days in the presence of different ratios of CD4^+ GFP^+ retrovirus-transduced T cells.
To further characterize the suppression of EAE by AHR activation we studied the activity of myelin specific T cells induced by vaccination with MOG35-55/CFA in TCDD-treated mice.
In addition, cells were stimulated in culture medium containing 100 μg/ml MOG35-55 for 2 days or with PMA (50 ng/ml) (Sigma-Aldrich) and ionomycin ([…]) (Calbiochem, San Diego, Calif., USA) for 4 hours, Golgistop (BD Biosciences) was added to the culture during the last 4 hours. After staining of surface markers, cells were fixed and permeabilized using Cytofix/Cytoperm and Perm/Wash buffer from BD Biosciences according to the manufacturer's instructions. All antibodies to cytokines (IFN-gamma, IL-17, IL-10) including the corresponding isotype controls were obtained from BD Biosciences. Cells were incubated (1:100) at 25° C. for 20 min and washed twice in Perm/Wash before analysis. Data were acquired on a FACSCalibur (BD Biosciences) and analyzed with FlowJo software (Tree Star, Ashland, Oreg., USA).
We then studied the effect of ITE administration on the encephalitogenic response against myelin. EAE was induced on naïve C57BL/6 mice and ITE ([…]) was administered orally or intraperitoneally on daily basis.

CD4+Foxp3+ Treg = CD4+Foxp3+ Treg quantified by FACS in treated mice; type: in vivo, mouse; parameters: number of CD4+FoxP3+ Treg / number of CD4+Foxp3+ T cells / levels of LAP+ regulatory T cells / number of CD4+FoxP3:GFP+ Treg in blood and spleen: dose or concentration left out as unconfirmed
[2] = cells purified from TCDD-treated Foxp3gfp mice
[3] = draining lymph node cells of TCDD-treated mice vs control
[4] = lymph node cells of TCDD-treated mice, 10 days after MOG35-55/CFA
[5] = CD4+ T cells from ITE-treated mice vs control
[6] = ITE 200 mg/mice daily (FIG. 22: IP), splenocytes
[7] = ITE ip daily, MOG35-55/CFA, spleens
[8] = ITE orally daily, MOG35-55/CFA, spleens

Compound: Clc1cc2c(cc1Cl)Oc1cc(Cl)c(Cl)cc1O2 [TCDD, 2,3,7,8 tetrachlorodibenzo-p-dioxin]
- induction of suppressive (regulatory) T cells ([1]; 5 days activation with antibodies to CD3 and CD28, TGFb1 2.5 ng/ml or TCDD alone): generation of both CD4^+ CD25^High and CD4^+ CD25^Low functional human regulatory T cells
- IL-10 expression (real time PCR) ([1]; TCDD 100 nM): increased levels of IL-10
- FoxP3 expression (real time PCR) ([1]; TCDD 100 nM and TGFb1 2.5 ng/ml): significantly up-regulated
- FoxP3 expression (real time PCR) ([1]; TCDD 100 nM in the absence of TGFb1): marginal induction of FoxP3 expression
- induction of CD4+ FoxP3+ T cells ([1]; TCDD 100 nM, antibodies to CD3 and CD28, 5 days): in some (FIG. 36) but not all human samples
- suppressive activity of T cells generated with TCDD ([1]; TCDD together with TGFb1 2.5 ng/ml): amplified in the presence of TGFb1
- AHR affinity (AHR): high affinity AHR ligand
- proliferation of effector CD4+ Foxp3:GFP- T cells to MOG35-55 (myelin specific T cells; [2]): normal proliferation
- secretion of IFNγ by effector CD4+ Foxp3:GFP- T cells upon activation with MOG35-55 (myelin specific T cells; [2]): significantly decreased secretion
- secretion of IL-17 by effector CD4+ Foxp3:GFP- T cells upon activation with MOG35-55 (myelin specific T cells; [2]): significantly decreased secretion
- IFNg secretion upon activation with MOG35-55 (myelin specific T cells; [3]): lower amounts
- IL-17 secretion upon activation with MOG35-55 (myelin specific T cells; [3]): lower amounts
- TGFb1 secretion upon activation with MOG35-55 (myelin specific T cells; [3]): higher amounts
- proliferative response upon activation with antibodies to CD3 (myelin specific T cells; [4]): no differences were seen
- recall proliferative response to the MOG35-55 peptide (myelin specific T cells; [4]): suppressed recall proliferative response
- number of CD4+FoxP3+ Treg (CD4+Foxp3+ Treg; TCDD ip, draining lymph nodes, without immunization): small increase
- frequency of CD4+Foxp3+ T cells (CD4+Foxp3+ Treg; TCDD ip, spleen, 21 days after EAE induction): significant increase in the frequency
- rebound in Treg numbers (CD4+Foxp3+ Treg; natural Treg depleted with antibodies to CD25 prior to TCDD treatment, day 7): faster rebound in their Treg numbers
- number of CD4+Foxp3+ T cells (CD4+Foxp3+ Treg; single TCDD ip followed by MOG35-55/CFA immunization, draining lymph nodes 10 days later): significant increase

Compound: COC(=O)c1csc(C(=O)c2c[nH]c3ccccc23)n1 [ITE, 2-(1′H-indole-3′-carbonyl)-thiazole-4-carboxylic acid methyl ester]
- AHR affinity (AHR): high affinity AHR ligands
- IFNg secretion upon activation with MOG35-55 (myelin specific T cells; [5]): lower amounts
- IL2 secretion upon activation with MOG35-55 (myelin specific T cells; [5]): lower amounts
- IL6 secretion upon activation with MOG35-55 (myelin specific T cells; [5]): lower amounts
- IL17 secretion upon activation with MOG35-55 (myelin specific T cells; [5]): lower amounts
- IL-10 secretion upon activation with MOG35-55 (myelin specific T cells; [5]): higher amounts
- TGFb1 secretion upon activation with MOG35-55 (myelin specific T cells; [5]): higher amounts
- recall response of purified CD4+ T cells (myelin specific T cells; Foxp3gfp mice, ITE 200 mg/mice intraperitoneal daily): suppressed response to MOG35-55 but not to anti-CD3
- proliferative response upon activation with antibodies to CD3 (myelin specific T cells; [6]): no differences were seen
- recall proliferative response to the MOG35-55 peptide (myelin specific T cells; [6]): suppressed recall proliferative response
- secretion of IFNg by lymph node cells activated with MOG35-55 or αCD3 (myelin specific T cells; ITE-treated mice): significant reduction in the secretion
- secretion of IL-17 by lymph node cells activated with MOG35-55 or αCD3 (myelin specific T cells; ITE-treated mice): significant reduction in the secretion
- number of CD4+FoxP3:GFP+ Treg in blood and spleen (CD4+Foxp3+ Treg; Foxp3gfp knock in mice, ITE ip daily, ten days after MOG35-55/CFA): significant increase in the number
- levels of LAP+ regulatory T cells (CD4+Foxp3+ Treg; [7]): did lead to significant alterations
- number of CD4+FoxP3+ Treg (CD4+Foxp3+ Treg; [7]): significant increase in the number
- levels of LAP+ regulatory T cells (CD4+Foxp3+ Treg; [8]): did lead to significant alterations
- number of CD4+FoxP3+ Treg (CD4+Foxp3+ Treg; [8]): significant increase in the number
